Non-standard residues stand in square brackets, D forms with d. Residues, ends and D or L forms follow the SMILES beside them.
Key:
[1] = test system: malnourished subjects with CKD; assay: Phase II CKD: 24-h urinary electrolytes; assay type: in vivo, human; conditions: in vivo
Protocol: Subjects collected 24-hour urine samples at screening, baseline (Days 0 to 1) and Days 28 to 29. All of the samples were analysed for creatinine and urea clearance (mL/min). The samples collected at baseline and on Day 28 were also analysed for proteinuria (Coumassie method), PNA, sodium, potassium, chloride, calcium and phosphate. GFR was calculated using the Cockcroft-Gault formula: Electrolyte excretion rates were calculated as follows: ? [formula] Electrolyte fractional excretion rates were calculated as follows: [formula]

human GHRH receptor = target: T1, human GHRH receptor (Homo sapiens, UniProt Q02643); assay: 125I-GHRH competitive binding assay in BHK cell membrane preparations; conditions: in comparison with hGHRH(1-29)NH2, ratio IC50 hGHRH(1-29)-NH2/IC50 analog
T1 construct: expressed in transfected cells; host or cells: BHK (baby hamster kidney) 570 cells, membrane preparations
T1 sequence (Q02643 23-423): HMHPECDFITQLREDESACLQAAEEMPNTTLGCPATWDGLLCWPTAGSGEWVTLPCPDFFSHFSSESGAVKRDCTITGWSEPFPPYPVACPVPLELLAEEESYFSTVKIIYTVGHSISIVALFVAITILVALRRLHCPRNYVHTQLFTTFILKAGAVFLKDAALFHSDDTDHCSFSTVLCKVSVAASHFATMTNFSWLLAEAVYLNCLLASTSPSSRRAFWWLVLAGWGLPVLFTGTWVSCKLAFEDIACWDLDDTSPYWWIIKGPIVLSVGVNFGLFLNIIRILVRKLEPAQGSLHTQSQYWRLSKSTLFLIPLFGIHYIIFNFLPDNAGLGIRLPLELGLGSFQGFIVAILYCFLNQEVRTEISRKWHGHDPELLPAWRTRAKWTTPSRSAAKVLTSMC
Protocol: Non specific binding was determined in presence of 1 μM hGHRH(1-29)NH2. Incubation was carried out at equilibrium (23° C., 60 min) and stopped by centrifugation (12,000 g, 5 min, at 4° C.). The radioactivity content in pellets was determined by gamma counting. The affinity of hGHRH(1-29) NH2 was tested in each experiment to assess the validity of the assay and determine the relative affinity of the analogs.
Values represent the mean±SEM of 3 experiments performed in triplicate for the analogs and the mean±SEM of 2 experiments performed in triplicate for hGHRH(1-44) NH2.
For the binding assay results presented in Tables 8 to 11, values represent the mean±SEM of 8 independent experiments performed in triplicate for the analogs and the mean±SEM of 4 experiments performed in triplicate for hGHRH(1-29)NH2. […] The relative affinity was obtained by taking the ratio IC50 of hGHRH (1-29)-NH2/IC50 analog.

[2] = test system: malnourished subjects with CKD; assay: Phase II CKD: DEXA scan; assay type: in vivo, human
Protocol: The DEXA scan was performed by an appropriately qualified person and in accordance with the agreed guidelines. Mean body composition values (fat free mass, fat mass and bone mineral content) were recorded for the total body and for defined regional areas (arms, legs, trunk), if possible.
Mean body composition values (total tissue, fat mass, lean tissue and bone mineral content) were recorded for the total body and defined regional areas (arms, legs, trunk) if possible. FFM was derived for total body and for regional areas.

[3] = listed as GHRH(1-29)NH2 synthetic analog

CC[C@H](C)[C@H](NC(=O)[C@H](C)NC(=O)[C@H](CC(=O)O)NC(=O)[C@@H](C)NC(=O)[C@@H](N)Cc1ccc(O)cc1)C(=O)N[C@@H](Cc1ccccc1)C(=O)N[C@H](C(=O)N[C@@H](CC(N)=O)C(=O)N[C@@H](CO)C(=O)N[C@H](Cc1ccc(O)cc1)C(=O)N[C@@H](CCCNC(=N)N)C(=O)N[C@@H](CCCCN)C(=O)N[C@H](C(=O)N[C@@H](CC(C)C)C(=O)N[C@H](C)C(=O)N[C@@H](CCC(N)=O)C(=O)N[C@@H](CC(C)C)C(=O)N[C@@H](CO)C(=O)N[C@@H](C)C(=O)N[C@@H](CCCNC(=N)N)C(=O)N[C@@H](CCCCN)C(=O)N[C@@H](CCCCN)C(=O)N[C@@H](CC(C)C)C(=O)N[C@@H](CCC(N)=O)C(=O)N[C@@H](CC(=O)O)C(=O)N[C@H](C(=O)N[C@@H](CCSC)C(=O)N[C@@H](CO)C(=O)N[C@@H](CCCNC(=N)N)C(N)=O)[C@@H](C)CC)C(C)C)[C@@H](C)O [GHRH analog #5, [D-Ala^2, D-Tyr^10, D-Ala^15, Lys^22] hGHRH(1-29)-NH2] (H-Y[dA]DAIFTNS[dY]RKVL[dA]QLSARKKLQDIMSR-NH2)
EFER potassium: mean difference between groups [1]: −7.93% | EFER sodium: ratio of means [1]: 0.79 | Electrolyte excretion rate (EER) calcium: mean difference between groups in change baseline to Day 28 [1]: −0.002 mmol/kg/24 h | Electrolyte fractional excretion rate (EFER) calcium: mean difference between groups [1]: −0.48% | Fractional Pi reabsorption rate (Pi/GFR): mean difference between groups [1]: -0.000059 mmol/mL | Sodium excretion: mean difference between groups [1]: −1.18 mmol/m^2/24 h | Fractional Pi reabsorption rate (Pi/GFR): mean difference between groups [1, 3]: -0.00006 mmol/mL | Relative binding affinity (R1) in hGHRH-R BHK-expressing cells (human GHRH receptor; listed as 5): 939 ± 249 | Relative binding affinity (R1) in hGHRH-R BHK-expressing cells (human GHRH receptor; listed as GHRH analog # 5): 939 ± 249 | Relative binding affinity (R1) in hGHRH-R BHK-expressing cells (human GHRH receptor; [3]): 939 | Mean fat mass (%) as % of the mean in placebo group ([2]; Day 28): 83% | Mean fat mass (kg) as % of the mean in placebo group ([2]; Day 28): 84% | Arms - bone mineral content: mean (SD) ([2]; ITT, Baseline): 0.317 (0.109) kg | Arms - fat mass: mean (SD) ([2]; ITT, Baseline): 2.22 (1.65) kg | Legs - bone mineral content: mean (SD) ([2]; ITT, Baseline): 0.791 (0.273) kg | Legs - fat mass: mean (SD) ([2]; ITT, Baseline): 5.26 (2.86) kg | Total body - bone mineral content (%): mean (SD) ([2]; ITT, Baseline): 3.63 (0.68) % | Total body - bone mineral content (kg): mean (SD) ([2]; ITT, Baseline): 2.236 (0.656) kg | Total body - fat free mass (%): mean (SD) ([2]; ITT, Baseline): 72.11 (14.25) % | Total body - fat free mass (kg): mean (SD) ([2]; ITT, Baseline): 43.83 (10.90) kg | Total body - fat mass (%): mean (SD) ([2]; ITT, Baseline): 27.89 (14.25) % | Total body - fat mass (kg): mean (SD) ([2]; ITT, Baseline): 17.10 (9.48) kg | Trunk - bone mineral content: mean (SD) ([2]; ITT, Baseline): 0.699 (0.239) kg | Trunk - fat mass: mean (SD) ([2]; ITT, Baseline): 8.52 (4.73) kg | Trunk - bone mineral content: mean (SD) ([2]; ITT, Baseline, listed as GHRH(1-29)NH2 synthetic analog): 0.699 kg | Arms - bone mineral content: mean (SD) ([2]; ITT, Day 28): 0.300 (0.106) kg | Arms - fat mass: mean (SD) ([2]; ITT, Day 28): 2.01 (1.25) kg | Legs - bone mineral content: mean (SD) ([2]; ITT, Day 28): 0.784 (0.281) kg | Legs - fat mass: mean (SD) ([2]; ITT, Day 28): 5.31 (3.05) kg | Total body - bone mineral content (%): mean (SD) ([2]; ITT, Day 28): 3.58 (0.69) % | Total body - bone mineral content (kg): mean (SD) ([2]; ITT, Day 28): 2.225 (0.674) kg | Total body - fat free mass (%): mean (SD) ([2]; ITT, Day 28): 73.16 (14.31) % | Total body - fat free mass (kg): mean (SD) ([2]; ITT, Day 28): 44.85 (11.61) kg | Total body - fat mass (%): mean (SD) ([2]; ITT, Day 28): 26.84 (14.31) % | Total body - fat mass (kg): mean (SD) ([2]; ITT, Day 28): 16.51 (9.51) kg | Trunk - bone mineral content: mean (SD) ([2]; ITT, Day 28): 0.718 (0.253) kg | Trunk - fat mass: mean (SD) ([2]; ITT, Day 28): 8.17 (4.91) kg | Trunk - bone mineral content: mean (SD) ([2]; ITT, Day 28, listed as GHRH(1-29)NH2 synthetic analog): 0.718 kg | Total body - fat free mass (kg): ratio of means; higher than placebo ([2]; ITT, Day 28, vs placebo): 2.94 kg | Total body - fat mass (%): ratio of means ([2]; ITT, Day 28, vs placebo): 0.83 | Total body - fat mass (kg): ratio of means ([2]; ITT, Day 28, vs placebo): 0.84 | Total body - fat free mass (kg): ratio of means; higher than placebo ([2]; ITT, Day 28, vs placebo, listed as GHRH(1-29)NH2 synthetic analog): 2.9 kg | Decrease from baseline in median FM ([2]; day 28): 0.4 kg | FM lost on average in arms ([2]; day 28): 0.22 kg | FM lost on average in trunk ([2]; day 28): 0.30 kg | Increase from baseline in median FFM ([2]; day 28): 1.6 kg | Mean FFM gained, arms ([2]; day 28): 0.15 kg | Mean FFM gained, legs ([2]; day 28): 1.03 kg | Mean FFM gained, total body ([2]; day 28): 1.83 kg | Mean FFM gained, trunk ([2]; day 28): 0.59 kg | Mean total FM lost ([2]; day 28): 0.51 kg
